Where two headings read alike, the source gives them in different places.
Columns and labels:
[1] = molecular target: Photobacterium sp. JH-ISH-224 α2-6-sialyltransferase Psp2,6ST(15-501)-His6, wild type, SEQ ID NO: 23 (Photobacterium sp. JT-ISH-224, UniProt A8QYL1); assay: Donor hydrolysis kinetics (CMP-Neu5Ac hydrolysis), wild-type Psp2,6ST(15-501)-His6; format: biochemical; settings: apparent, 20° C., 10 min, Tris-HCl pH 8.0
Description: (§1) Procedure for Kinetic Analysis of Donor Hydrolysis by His6-Pd2,6ST(16-497), Psp26ST(15-501)-His6 and its A235D and A366G Mutants
(§2) The kinetics study for the donor hydrolysis activity of His6-Pd2,6ST(16-497) was carried out at 37° C. for 20 min in Tris-HCl buffer (200 mM, pH 8.0). The kinetics study for the donor hydrolysis activities of Psp26ST(15-501)-His6 and its A235D mutant was carried out at 20° C. for 10 min in Tris-HCl buffer (200 mM, pH 8.0). All reactions were performed in duplicate in a total volume of 10 μL containing varied concentrations of CMP-Neu5Ac (10, 20, 40, 60, 80 and 100 mM) and the enzyme (6 μM). Reactions were stopped by adding 10 μL of ethanol and then centrifuged. The supernatants were analyzed by a P/ACETM capillary electrophoresis (CE) system equipped with a photodiode array (PDA) detector (Beckman Coulter, Inc., Fullerton, Calif.). CE conditions were as follows: 75 μm i.d. capillary, 25 KV/80μÅ, 5 s vacuum injections, monitored at 200 nm and 254 nm, the running buffer used was sodium tetraborate (25 mM, pH 9.4). Apparent kinetic parameters were obtained by fitting the experimental data (the average values of duplicate assay results) into the Michaelis-Menten equation using Grafit 5.0.

[2] = system: Photobacterium sp. JH-ISH-224 α2-6-sialyltransferase Psp26ST(15-501)-His6 A366G mutant, SEQ ID NO: 2; assay: Sialyltransferase kinetics, Psp26ST(15-501)-His6 A366G mutant; format: biochemical; settings: apparent, varied CMP-Neu5Ac
Description: Reactions were carried out in duplicate at 20° C. for 20 minutes in a total volume of 10 μL in a proper buffer at the optimal pH according to the pH profile of the wild-type enzyme (see, Ding, 2011, supra). When LacβMU was used as an acceptor, the conditions were: Tris-HCl buffer (200 mM, pH 8.0), enzyme (0.3 μM), varied concentrations of LacβMU (0.1, 0.25, 0.4, 1.0, 2.0, 4.0, and 6.0 mM) with a fixed concentration of CMP-Neu5Ac (1.0 mM) or varied concentrations of CMP-Neu5Ac (0.1, 0.25, 0.4, 1.0, 2.0, 4.0, and 6.0 mM) with a fixed concentration of LacβMU (1.0 mM). When GalNAcα2AA was used as an acceptor, the conditions were: NaOAc-HOAc buffer (200 mM, pH 5.0), enzyme (6 μM), varied concentrations of GalNAcα2AA (0.5, 0.8, 1.0, 2.0, 4.0, 8.0, and 10.0 mM) and a fixed concentration of CMP-Neu5Ac (4.0 mM) or varied concentrations of CMP-Neu5Ac (0.5, 1.0, 2.0, 4.0, 5.0, 8.0, and 10.0 mM) with a fixed concentration of GalNAcα2AA (1.0 mM). When GalNAcαSer was used as an acceptor, the conditions were: Tris-HCl buffer (200 mM, pH 8.0), enzyme (0.6 μM), varied concentrations of GalNAcαSer (0.1, 0.25, 0.5, 1.0, 2.0, 4.0, 8.0, and 10.0 mM) and a fixed concentration of CMP-Neu5Ac (2.0 mM). When GalNAcαThr was used as an acceptor, the conditions were: Tris-HCl buffer (200 mM, pH 8.0), enzyme (3.0 μM), varied concentrations of GalNAcαThr (0.5, 1.0, 2.0, 4.0, 10.0, 20.0, 40.0, 60.0 mM) and a fixed concentration of CMP-Neu5Ac (4.0 mM). Results analysis was performed using the HPLC system as described above for sialyltransferase activity assays. Apparent kinetic parameters were obtained by fitting the experimental data (the average values of duplicate assay results) into the Michaelis-Menten equation using Grafit 5.0.

[3] = system: Photobacterium sp. JH-ISH-224 α2-6-sialyltransferase Psp26ST(15-501)-His6, wild type, SEQ ID NO: 23; settings: apparent, donor CMP-Neu5Ac, cited from earlier work
[4] = substrate: CC(=O)N[C@H]1[C@H]([C@H](O)[C@H](O)CO)O[C@](OP(=O)(O)OC[C@H]2O[C@@H](n3ccc(N)nc3=O)[C@H](O)[C@@H]2O)(C(=O)O)C[C@@H]1O; assay: Donor hydrolysis kinetics (CMP-Neu5Ac hydrolysis), Psp2,6ST(15-501)-His6 A235D mutant; format: biochemical, Photobacterium sp. JH-ISH-224; settings: other: apparent, 20° C., 10 min, Tris-HCl pH 8.0
Description: as §1, §2

[5] = Kinetics of CMP-Neu5Ac donor hydrolysis activity (capillary electrophoresis); format: biochemical
Description: as §1, §2

[6] = Sialyltransferase activity assays, statements not tied to one acceptor (LacβMU, GalNAcα2AA, GalNAcαSer, GalNAcαThr); format: biochemical
Description: When LacβMU was used as an acceptor, the assay was performed in duplicate in 10 μL of Tris-HCl buffer (100 mM, pH 8.0) containing CMP-Neu5Ac (1 mM), LacβMU (1 mM), MgCl2 (20 mM), wild-type Psp2,6ST(15-501)-His6 or its mutant (0.3 μM). When an α-GalNAc-terminated acceptor was used, the assay was performed in duplicate in 10 μL of Tris-HCl buffer (100 mM, pH 8.0 for GalNAcαSer/Thr) or NaOAc-HOAc (100 mM, pH 5.0 for GalNAcα2AA) containing CMP-Neu5Ac (1.5 mM), the acceptor (1 mM), MgCl2 (20 mM), wild-type Psp2,6ST(15-501)-His6 or its mutant (3.0 μM). Reactions were allowed to proceed at 20° C. for 20 min and stopped by adding 10 μL of cold ethanol. The analysis of sialylated product conversion was performed using the HPLC system as described above for sialyltransferase activity assay. The 4-methylumbelliferone (MU)-labeled fluorescent acceptor and the product formed were detected with excitation at 325 nm and emission at 372 nm. The 2-aminobenzoic acid (2AA)-labeled fluorescent acceptors and the products formed were detected with excitation at 315 nm and emission at 400 nm. The 9-fluorenylmethylcarbamate (Fmoc)-labeled fluorescent acceptors and the products formed were detected with excitation at 262 nm and emission at 313 nm.

[7] = substrate: CC(=O)N[C@H]1[C@H]([C@H](O)[C@H](O)CO)O[C@](OP(=O)(O)OC[C@H]2O[C@@H](n3ccc(N)nc3=O)[C@H](O)[C@@H]2O)(C(=O)O)C[C@@H]1O; assay: Donor hydrolysis kinetics (CMP-Neu5Ac hydrolysis), His6-Pd2,6ST(16-497); format: biochemical, Photobacterium damselae; settings: other: apparent, 37° C., 20 min, Tris-HCl pH 8.0, pH 2.6
Description: as §1, §2

[8] = GalNAcα2AA 1.0 mM, NaOAc-HOAc pH 5.0, 20° C.
[9] = LacβMU 1.0 mM, Tris-HCl pH 8.0, 20° C.

## CC(=O)N[C@H]1[C@H]([C@H](O)[C@H](O)CO)O[C@](OP(=O)(O)OC[C@H]2O[C@@H](n3ccc(N)nc3=O)[C@H](O)[C@@H]2O)(C(=O)O)C[C@@H]1O [CMP-Neu5Ac, cytidine 5′-monophosphate N-acetylneuraminic acid]
[1]
  kcat: (2.9 ± 0.3) × 10^2 min^−1
[2]; [8]
  Km: 3300 ± 400 µM
  kcat: 0.0983 ± 0.0033 s⁻¹
[2]; [9]
  Km: 630 µM
  kcat: (1.3 ± 0.1) × 10^2 min^−1
[3]; acceptor GalNAcα2AA
  Km: 3900 ± 400 µM
  kcat: 0.08 ± 0.0033 s⁻¹
[3]; acceptor LacβMU
  Km: 620 µM
  kcat: (1.4 ± 0.1) × 10^2 min^−1

B1: Photobacterium sp. JH-ISH-224 α2-6-sialyltransferase Psp2,6ST(15-501)-His6 A235D mutant, SEQ ID NO: 14 (Photobacterium sp. JT-ISH-224; A235D) (protein)
chain: CNNSEENTQSIIKNDINKTIIDEEYVNLEPINQSNISFTKHSWVQTCGTQQLLTEQNKESISLSVVAPRLDDDEKYCFDFNGVSNKGEKYITKVTLNVVAPSLEVYVDHASLPTLQQLMDIIKSEEENPTAQRYIAWGRIVPTDEQMKELNITSFALINNHTPADLVQEIVKQAQTKHRLNVKLSSNTAHSFDNLVPILKELNSFNNVTVTNIDLYDDGSDEYVNLYNWRDTLNKTDNLKIGKDYLEDVINGINEDTSNTGTSSVYNWQKLYPANYHFLRKDYLTLEPSLHELRDYIGDSLKQMQWDGFKKFNSKQQELFLSIVNFDKQKLQNEYNSSNLPNFVFTGTTVWAGNHEREYYAKQQINVINNAINESSPHYLGNSYDLFFKGHPGGGIINTLIMQNYPSMVDIPSKISFEVLMMTDMLPDAVAGIASSLYFTIPAEKIKFIVFTSTETITDRETALRSPLVQVMIKLGIVKEENVLFWA
[4]
  kcat: 4.17 ± 0.333 s⁻¹

B2: A235D: Psp26ST(15-501)-His6 with A235D point mutation; SEQ ID NO: 14 (protein)
chain: CNNSEENTQSIIKNDINKTIIDEEYVNLEPINQSNISFTKHSWVQTCGTQQLLTEQNKESISLSVVAPRLDDDEKYCFDFNGVSNKGEKYITKVTLNVVAPSLEVYVDHASLPTLQQLMDIIKSEEENPTAQRYIAWGRIVPTDEQMKELNITSFALINNHTPADLVQEIVKQAQTKHRLNVKLSSNTAHSFDNLVPILKELNSFNNVTVTNIDLYDDGSDEYVNLYNWRDTLNKTDNLKIGKDYLEDVINGINEDTSNTGTSSVYNWQKLYPANYHFLRKDYLTLEPSLHELRDYIGDSLKQMQWDGFKKFNSKQQELFLSIVNFDKQKLQNEYNSSNLPNFVFTGTTVWAGNHEREYYAKQQINVINNAINESSPHYLGNSYDLFFKGHPGGGIINTLIMQNYPSMVDIPSKISFEVLMMTDMLPDAVAGIASSLYFTIPAEKIKFIVFTSTETITDRETALRSPLVQVMIKLGIVKEENVLFWA
modifications: C-terminal His6; Synthetic Psp26ST(15-501) A235D
[5]
  donor hydrolysis activity compared to wild-type: decreased donor hydrolysis activity
[6]
  sialylation activity compared to wild-type: maintaining most of the sialylation activity

B3: Photobacterium damselae α2-6-sialyltransferase His6-Pd2,6ST(16-497) (Photobacterium damselae) (protein)
chain: CNSDNTSLKETVSSNSADVVETETYQLTPIDAPSSFLSHSWEQTCGTPILNESDKQAISFDFVAPELKQDEKYCFTFKGITGDHRYITNTTLTVVAPTLEVYIDHASLPSLQQLIHIIQAKDEYPSNQRFVSWKRVTVDADNANKLNIHTYPLKGNNTSPEMVAAIDEYAQSKNRLNIEFYTNTAHVFNNLPPIIQPLYNNEKVKISHISLYDDGSSEYVSLYQWKDTPNKIETLEGEVSLLANYLAGTSPDAPKGMGNRYNWHKLYDTDYYFLREDYLDVEANLHDLRDYLGSSAKQMPWDEFAKLSDSQQTLFLDIVGFDKEQLQQQYSQSPLPNFIFTGTTTWAGGETKEYYAQQQVNVINNAINETSPYYLGKDYDLFFKGHPAGGVINDIILGSFPDMINIPAKISFEVLMMTDMLPDTVAGIASSLYFTIPADKVNFIVFTSSDTITDREEALKSPLVQVMLTLGIVKEKDVLFWA
[7]
  kcat: 3.67 ± 0.333 s⁻¹
